What was measured:
Experiment in all cases: fitness (endpoint OD595 vs no drug) (fraction); higher = more growth
B. subtilis 168 = test system: B. subtilis 168
Method in brief: (§1)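 Fitness expresses the optical density reached at the stationary-phase transition as a fraction of the robust mean of no-drug control wells. It is capped at 1. Measurements were OD595 every 30 min for 14 h at 37 °C after inoculation of 384-well plates at OD595 0.01 (30 µl, or 55 µl for S. pneumoniae), minus the first reading.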

S. aureus Newman = test system: S. aureus Newman
Method in brief: as §1

S. pneumoniae D39V = test system: S. pneumoniae D39V
Method in brief: as §1
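Further: OD595 on entry to stationary phase over no-drug wells; at most 1.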

O=C(O)[C@H]1/C(=C/CO)O[C@@H]2CC(=O)N21 [Clavulanic acid] + COc1ccc(C[C@H](N)C(=O)N[C@H]2[C@@H](O)[C@H](n3cnc4c(N(C)C)ncnc43)O[C@@H]2CO)cc1 [Puromycin]
Conditions	fitness
B. subtilis 168, first compound 1.5 µg/mL, partner 0.39 µg/mL	0.919
B. subtilis 168, first compound 1.5 µg/mL, partner 0.78 µg/mL	0.995
B. subtilis 168, first compound 1.5 µg/mL, partner 1.56 µg/mL	0.888
B. subtilis 168, first compound 3 µg/mL, partner 0.39 µg/mL	0.872
B. subtilis 168, first compound 3 µg/mL, partner 0.78 µg/mL	0.871
B. subtilis 168, first compound 3 µg/mL, partner 1.56 µg/mL	0.851
B. subtilis 168, first compound 6 µg/mL, partner 0.39 µg/mL	0.787
B. subtilis 168, first compound 6 µg/mL, partner 0.78 µg/mL	0.76
B. subtilis 168, first compound 6 µg/mL, partner 1.56 µg/mL	0.775
S. pneumoniae D39V, first compound 0.5 µg/mL, partner 1 µg/mL	≥ 1
S. pneumoniae D39V, first compound 0.5 µg/mL, partner 2 µg/mL	0.931
S. pneumoniae D39V, first compound 1 µg/mL, partner 1 µg/mL	0.937
S. pneumoniae D39V, first compound 1 µg/mL, partner 2 µg/mL	0.891
S. pneumoniae D39V, first compound 1 µg/mL, partner 4 µg/mL	0.528
S. pneumoniae D39V, first compound 2 µg/mL, partner 1 µg/mL	0.72
S. pneumoniae D39V, first compound 2 µg/mL, partner 2 µg/mL	0.793

fitness, S. aureus Newman, one replicate
Conditions	first compound 0.03125 µg/mL	first compound 0.0625 µg/mL	first compound 0.125 µg/mL
partner 0.39 µg/mL	0.952	≥ 1	0.89
partner 0.78 µg/mL	0.91	≥ 1	0.901
partner 1.56 µg/mL	≥ 1	0.99	0.894

O=C(O)[C@H]1/C(=C/CO)O[C@@H]2CC(=O)N21 [Clavulanic acid] + COc1cccc2c1C(=O)c1c(O)c3c(c(O)c1C2=O)C[C@@](O)(C(=O)CO)C[C@@H]3O[C@H]1C[C@H](N)[C@H](O)[C@H](C)O1 [Doxorubicin]
Conditions	fitness
B. subtilis 168, first compound 1.5 µg/mL, partner 0.625 µg/mL	0.911
B. subtilis 168, first compound 1.5 µg/mL, partner 1.25 µg/mL	0.9
B. subtilis 168, first compound 1.5 µg/mL, partner 2.5 µg/mL	0.696
B. subtilis 168, first compound 3 µg/mL, partner 0.625 µg/mL	0.849
B. subtilis 168, first compound 3 µg/mL, partner 1.25 µg/mL	0.88
B. subtilis 168, first compound 3 µg/mL, partner 2.5 µg/mL	0.625
B. subtilis 168, first compound 6 µg/mL, partner 0.625 µg/mL	0.792
B. subtilis 168, first compound 6 µg/mL, partner 1.25 µg/mL	0.736
S. pneumoniae D39V, first compound 0.5 µg/mL, partner 0.25 µg/mL	0.933
S. pneumoniae D39V, first compound 0.5 µg/mL, partner 0.5 µg/mL	0.954
S. pneumoniae D39V, first compound 0.5 µg/mL, partner 1 µg/mL	0.838
S. pneumoniae D39V, first compound 1 µg/mL, partner 0.25 µg/mL	0.885
S. pneumoniae D39V, first compound 1 µg/mL, partner 0.5 µg/mL	0.853
S. pneumoniae D39V, first compound 1 µg/mL, partner 1 µg/mL	0.813
S. pneumoniae D39V, first compound 2 µg/mL, partner 1 µg/mL	0.706

fitness, S. aureus Newman, one replicate
Conditions	first compound 0.03125 µg/mL	first compound 0.0625 µg/mL	first compound 0.125 µg/mL
partner 0.625 µg/mL	0.979	0.984	0.882
partner 1.25 µg/mL	0.905	0.883	0.803
partner 2.5 µg/mL	0.739	0.755	0.753

O=C(O)[C@H]1/C(=C/CO)O[C@@H]2CC(=O)N21 [Clavulanic acid] + C[C@@H]1O[C@@H]1P(=O)(O)O [Fosfomycin]
fitness
Conditions	first compound 0.5 µg/mL	first compound 1 µg/mL	first compound 1.5 µg/mL	first compound 2 µg/mL	first compound 3 µg/mL	first compound 6 µg/mL
B. subtilis 168, partner 1.562 µg/mL	–	–	0.691	–	0.644	0.559
B. subtilis 168, partner 3.124 µg/mL	–	–	0.564	–	0.529	0.453
B. subtilis 168, partner 6.248 µg/mL	–	–	0.478	–	0.416	0.301
S. pneumoniae D39V, partner 1.25 µg/mL	0.953	0.905	–	0.821	–	–
S. pneumoniae D39V, partner 2.5 µg/mL	0.933	0.872	–	0.802	–	–

fitness, S. aureus Newman, one replicate
Conditions	first compound 0.03125 µg/mL	first compound 0.0625 µg/mL	first compound 0.125 µg/mL
partner 0.781 µg/mL	0.96	0.885	0.841
partner 1.562 µg/mL	0.679	0.626	0.598
partner 3.124 µg/mL	0.396	0.382	0.349

O=C(O)[C@H]1/C(=C/CO)O[C@@H]2CC(=O)N21 [Clavulanic acid] + Cn1nnc(-c2ccc(-c3ccc(N4C[C@H](CO)OC4=O)cc3F)cn2)n1 [Tedizolid]
fitness, S. aureus Newman, one replicate
Conditions	first compound 0.03125 µg/mL	first compound 0.0625 µg/mL	first compound 0.125 µg/mL
partner 0.0625 µg/mL	0.827	0.837	0.868
partner 0.125 µg/mL	0.498	0.509	0.523
partner 0.25 µg/mL	0.0634	0.0552	0.0639

fitness, S. pneumoniae D39V
Conditions	partner 0.03125 µg/mL	partner 0.0625 µg/mL	partner 0.125 µg/mL	partner 0.25 µg/mL	partner 0.5 µg/mL
first compound 0.5 µg/mL	0.953	0.943	0.693	0.261	0.0809
first compound 1 µg/mL	0.887	0.938	0.673	0.371	0.227
first compound 2 µg/mL	0.855	0.901	0.581	0.262	0.0776

O=C(O)[C@H]1/C(=C/CO)O[C@@H]2CC(=O)N21 [Clavulanic acid] + N[C@@H]1CONC1=O [Cycloserine D]
fitness, B. subtilis 168
Conditions	first compound 1.5 µg/mL	first compound 3 µg/mL	first compound 6 µg/mL
partner 0.125 µg/mL	0.903	0.909	0.792
partner 0.25 µg/mL	0.957	0.861	0.801
partner 0.5 µg/mL	0.946	0.915	0.832

fitness, S. aureus Newman, one replicate
Conditions	first compound 0.03125 µg/mL	first compound 0.0625 µg/mL	first compound 0.125 µg/mL
partner 0.375 µg/mL	0.902	0.954	0.885
partner 0.75 µg/mL	0.884	0.942	0.888
partner 1.5 µg/mL	0.899	0.858	0.897

CNC(C)C1CCC(N)C(OC2C(N)CC(N)C(OC3OCC(C)(O)C(NC)C3O)C2O)O1 (stereo unspecified) [Gentamicin] + CO[C@@]12[C@H](COC(N)=O)C3=C(C(=O)C(C)=C(N)C3=O)N1C[C@@H]1N[C@@H]12 [Mitomycin C]
fitness, S. aureus Newman, one replicate, main component drawn
Conditions	first compound 0.375 µg/mL	first compound 0.75 µg/mL	first compound 1.5 µg/mL
partner 0.0156 µg/mL	0.755	0.779	0.774
partner 0.0312 µg/mL	0.762	0.725	0.707
partner 0.0625 µg/mL	0.602	0.603	0.607

fitness, main component drawn
Conditions	partner 0.001075 µg/mL	partner 0.002 µg/mL	partner 0.00215 µg/mL	partner 0.004 µg/mL	partner 0.0043 µg/mL	partner 0.008 µg/mL	partner 0.0156 µg/mL	partner 0.0312 µg/mL	partner 0.0625 µg/mL
S. aureus Newman, first compound 0.5 µg/mL	–	–	–	–	–	–	0.762	0.667	0.558
S. aureus Newman, first compound 1 µg/mL	–	–	–	–	–	–	0.797	0.698	0.601
S. aureus Newman, first compound 2 µg/mL	–	–	–	–	–	–	0.808	0.732	0.585
S. pneumoniae D39V, first compound 2 µg/mL	0.975	0.787	0.969	0.685	0.844	0.395	–	–	–
S. pneumoniae D39V, first compound 4 µg/mL	0.94	0.729	0.915	0.602	0.807	0.369	–	–	–
S. pneumoniae D39V, first compound 8 µg/mL	0.946	0.715	0.929	0.608	0.827	0.346	–	–	–
